Measurements as given in patent publication US20250382344A1, “Soluble GLP1/GIP/NPY2 Receptor Triple Agonists” (Boehringer Ingelheim International GmH, priority 2024, published 2025).
Where two headings read alike, the source gives them in different places.

Columns and labels:
hGIPR = target: T1, hGIPR (Homo sapiens, UniProt P48546); test: hGIPR CreLuc assay in 0.5% and 100% plasma (CHO CRE-luciferase reporter cells); type: cell-based
T1 construct: expressed in transfected cells; host or cells: CHO CRE-luciferase reporter cells
T1 sequence (P48546 22-466): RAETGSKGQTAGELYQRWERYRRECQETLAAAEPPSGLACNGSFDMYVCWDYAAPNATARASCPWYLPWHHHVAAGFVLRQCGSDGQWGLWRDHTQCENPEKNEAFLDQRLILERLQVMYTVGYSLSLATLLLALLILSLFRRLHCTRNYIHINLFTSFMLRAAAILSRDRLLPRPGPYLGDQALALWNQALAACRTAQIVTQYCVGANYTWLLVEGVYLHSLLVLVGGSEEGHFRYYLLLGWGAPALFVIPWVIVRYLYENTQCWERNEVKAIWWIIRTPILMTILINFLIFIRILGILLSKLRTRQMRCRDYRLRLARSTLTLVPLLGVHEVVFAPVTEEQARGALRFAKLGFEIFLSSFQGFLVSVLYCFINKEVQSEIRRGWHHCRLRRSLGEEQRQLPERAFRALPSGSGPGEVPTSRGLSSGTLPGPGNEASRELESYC

[1] = Solubility in 0.1 M phosphate buffer at pH 7; type: physicochemical; conditions: 0.1 M phosphate buffer at pH 7, 10 mg/mL final peptide concentration, shaking 2 hours at room temperature, peptides as TFA-salts; measured sample pH 6.5-7.0
[2] = 0.5% human plasma, read-out: hGIPR 0.5% hP
[3] = 100% human plasma, read-out: hGIPR 100% hP

## CC[C@H](C)[C@H](NC(=O)[C@H](CC(C)C)NC(=O)[C@H](Cc1c[nH]cn1)NC(=O)[C@H](CCCNC(=N)N)NC(=O)[C@@H](NC(=O)[C@H](Cc1ccccc1)NC(=O)[C@H](C)NC(=O)C(C)(C)NC(=O)[C@H](CCC(N)=O)NC(=O)[C@H](C)NC(=O)[C@H](CCC(N)=O)NC(=O)[C@H](CCCCN)NC(=O)[C@H](CCC(=O)O)NC(=O)[C@H](CC(C)C)NC(=O)C(C)(C)NC(=O)[C@@H](NC(=O)[C@H](CO)NC(=O)[C@H](CC(C)C)NC(=O)[C@H](CC(=O)O)NC(=O)[C@H](CO)NC(=O)[C@@H](NC(=O)[C@H](Cc1ccccc1)NC(=O)[C@@H](NC(=O)CNC(=O)[C@H](CCC(=O)O)NC(=O)C(C)(C)NC(=O)[C@@H](N)Cc1ccc(O)cc1)[C@@H](C)O)[C@@H](C)O)[C@@H](C)CC)C(C)C)C(=O)N[C@@H](CC(N)=O)C(=O)N[C@@H](CCCCNC(=O)[C@@H](N)CCCCNC(=O)CC[C@H](NC(=O)CC[C@H](NC(=O)CC[C@H](NC(=O)CC[C@H](NC(=O)CC[C@H](NC(=O)CC[C@H](NC(=O)CC[C@H](NC(=O)CCCCCCCCCCCCCCCCCCC(=O)O)C(=O)O)C(=O)O)C(=O)O)C(=O)O)C(=O)O)C(=O)O)C(=O)O)C(=O)NC(C)(C)C(=O)N[C@H](C(=O)N[C@@H](CCCNC(=N)N)C(=O)N[C@@H](CCC(N)=O)C(=O)N[C@@H](CCCNC(=N)N)C(=O)N[C@@H](Cc1ccc(O)cc1)C(N)=O)[C@@H](C)O [Compound 135, Y-Aib-E-G-T-F-T-S-D-L-S-I-Aib-L-E-K-Q-A-Q-Aib-A-F-V-R-H-L-I-N-K(1,3)-Aib-T-R-Q-R-Y-NH2.C20DA-gGlu-gGlu-gGlu-gGlu-gGlu-gGlu-gGlu-eLys(1,2)]
hGIPR; hGIPR 0.5% hP (nM), 0.5% human plasma
  EC50: 0.5 nM
[1]
  solubility at 2 h: 9200 µg/mL

## CC[C@H](C)[C@H](NC(=O)[C@H](CC(C)C)NC(=O)[C@H](Cc1c[nH]cn1)NC(=O)[C@H](CCCNC(=N)N)NC(=O)[C@@H](NC(=O)[C@H](Cc1ccccc1)NC(=O)[C@H](C)NC(=O)C(C)(C)NC(=O)[C@H](CCC(N)=O)NC(=O)[C@H](C)NC(=O)[C@H](CCC(N)=O)NC(=O)[C@H](CCCCN)NC(=O)[C@H](CCC(=O)O)NC(=O)[C@H](CC(C)C)NC(=O)C(C)(C)NC(=O)[C@@H](NC(=O)[C@H](CO)NC(=O)[C@H](Cc1ccc(O)cc1)NC(=O)[C@H](CC(=O)O)NC(=O)[C@H](CO)NC(=O)[C@@H](NC(=O)[C@H](Cc1ccccc1)NC(=O)[C@@H](NC(=O)CNC(=O)[C@H](CCC(=O)O)NC(=O)C(C)(C)NC(=O)[C@@H](N)Cc1ccc(O)cc1)[C@@H](C)O)[C@@H](C)O)[C@@H](C)CC)C(C)C)C(=O)N[C@@H](CC(N)=O)C(=O)N[C@@H](CCCCNC(=O)CC[C@H](NC(=O)CC[C@H](NC(=O)COCCOCCNC(=O)CC[C@H](NC(=O)CC[C@H](NC(=O)CC[C@H](NC(=O)CC[C@H](NC(=O)CCCCCCCCCCCCCCCCCCC(=O)O)C(=O)O)C(=O)O)C(=O)O)C(=O)O)C(=O)O)C(=O)O)C(=O)NC(C)(C)C(=O)N[C@H](C(=O)N[C@@H](CCCNC(=N)N)C(=O)N[C@@H](CCC(N)=O)C(=O)N[C@@H](CCCNC(=N)N)C(=O)N[C@@H](Cc1ccc(O)cc1)C(N)=O)[C@@H](C)O [Compound 136, Y-Aib-E-G-T-F-T-S-D-Y-S-I-Aib-L-E-K-Q-A-Q-Aib-A-F-V-R-H-L-I-N-K(1,3)-Aib-T-R-Q-R-Y-NH2.C20DA-gGlu-gGlu-gGlu-gGlu-OEG-gGlu-gGlu(1,2)]
hGIPR; [2]
  EC50: 0.5 nM
[1]
  solubility at 2 h: 9600 µg/mL

## CC[C@H](C)[C@H](NC(=O)[C@H](CC(C)C)NC(=O)[C@H](Cc1c[nH]cn1)NC(=O)[C@H](CCCNC(=N)N)NC(=O)[C@@H](NC(=O)[C@H](Cc1ccccc1)NC(=O)[C@H](C)NC(=O)C(C)(C)NC(=O)[C@H](CCC(N)=O)NC(=O)[C@H](C)NC(=O)[C@H](CCC(N)=O)NC(=O)[C@H](CCCCN)NC(=O)[C@H](CCC(=O)O)NC(=O)[C@H](CC(C)C)NC(=O)C(C)(C)NC(=O)[C@@H](NC(=O)[C@H](CO)NC(=O)[C@H](Cc1ccc(O)cc1)NC(=O)[C@H](CC(=O)O)NC(=O)[C@H](CO)NC(=O)[C@@H](NC(=O)[C@H](Cc1ccccc1)NC(=O)[C@@H](NC(=O)CNC(=O)[C@H](CCC(=O)O)NC(=O)C(C)(C)NC(=O)[C@@H](N)Cc1ccc(O)cc1)[C@@H](C)O)[C@@H](C)O)[C@@H](C)CC)C(C)C)C(=O)N[C@@H](CC(N)=O)C(=O)N[C@@H](CCCCNC(=O)[C@@H](N)CCCCNC(=O)CC[C@H](NC(=O)CC[C@H](NC(=O)CC[C@H](NC(=O)CC[C@H](NC(=O)CC[C@H](NC(=O)CC[C@H](NC(=O)[C@H]1CC[C@H](CNC(=O)CCCCCCCCCCCCCCCCC(=O)O)CC1)C(=O)O)C(=O)O)C(=O)O)C(=O)O)C(=O)O)C(=O)O)C(=O)NC(C)(C)C(=O)N[C@H](C(=O)N[C@@H](CCCNC(=N)N)C(=O)N[C@@H](CCC(N)=O)C(=O)N[C@@H](CCCNC(=N)N)C(=O)N[C@@H](Cc1ccc(O)cc1)C(N)=O)[C@@H](C)O [Compound 137, Y-Aib-E-G-T-F-T-S-D-Y-S-I-Aib-L-E-K-Q-A-Q-Aib-A-F-V-R-H-L-I-N-K(1,3)-Aib-T-R-Q-R-Y-NH2.C18DA-TRX-gGlu-gGlu-gGlu-gGlu-gGlu-gGlu-eLys(1,2)]
hGIPR; [2]
  EC50: 0.5 nM
hGIPR; [3]
  EC50: 11.5 nM
[1]
  solubility at 2 h: 4300 µg/mL

## CC[C@H](C)[C@H](NC(=O)[C@H](CC(C)C)NC(=O)[C@H](Cc1c[nH]cn1)NC(=O)[C@H](CCCNC(=N)N)NC(=O)[C@@H](NC(=O)[C@H](Cc1ccccc1)NC(=O)[C@H](C)NC(=O)C(C)(C)NC(=O)[C@H](CCC(N)=O)NC(=O)[C@H](C)NC(=O)[C@H](CCC(N)=O)NC(=O)[C@H](CCC(=O)O)NC(=O)[C@H](CC(=O)O)NC(=O)[C@H](CC(C)C)NC(=O)C(C)(C)NC(=O)[C@@H](NC(=O)[C@H](CO)NC(=O)[C@H](Cc1ccc(O)cc1)NC(=O)[C@H](CC(=O)O)NC(=O)[C@H](CO)NC(=O)[C@@H](NC(=O)[C@H](Cc1ccccc1)NC(=O)[C@@H](NC(=O)CNC(=O)[C@H](CCC(=O)O)NC(=O)C(C)(C)NC(=O)[C@@H](N)Cc1ccc(O)cc1)[C@@H](C)O)[C@@H](C)O)[C@@H](C)CC)C(C)C)C(=O)N[C@@H](CC(N)=O)C(=O)N[C@@H](CCCCNC(=O)[C@@H](N)CCCCNC(=O)CC[C@H](NC(=O)CC[C@H](NC(=O)CC[C@H](NC(=O)CC[C@H](NC(=O)CC[C@H](NC(=O)CCCCCCCCCCCCCCCCCCC(=O)O)C(=O)O)C(=O)O)C(=O)O)C(=O)O)C(=O)O)C(=O)NC(C)(C)C(=O)N[C@H](C(=O)N[C@@H](CCCNC(=N)N)C(=O)N[C@@H](CCC(N)=O)C(=O)N[C@@H](CCCNC(=N)N)C(=O)N[C@@H](Cc1ccc(O)cc1)C(N)=O)[C@@H](C)O [Compound 138, Y-Aib-E-G-T-F-T-S-D-Y-S-I-Aib-L-D-E-Q-A-Q-Aib-A-F-V-R-H-L-I-N-K(1,3)-Aib-T-R-Q-R-Y-NH2.C20DA-gGlu-gGlu-gGlu-gGlu-gGlu-eLys(1,2)]
hGIPR; [2]
  EC50: 0.5 nM
hGIPR; [3]
  EC50: 11.5 nM
[1]
  solubility at 2 h: 9300 µg/mL
